Laboratory results as given in paper PMC7129916 (Clinical Microbiology and Infection, 2015).
Converted amounts (≈) assume the structure as drawn. Read-outs that look alike come from different tables or passages of the source.

Columns and labels:
[1] = design: species or system human; details: in vivo
M. catarrhalis [2] = test: microbe, parasite or virus in culture; assay type: cell-based; details: Moraxella catarrhalis
H. influenzae [3] = test: microbe, parasite or virus in culture; assay type: cell-based; details: Haemophilus influenzae
[4] = in vivo
M. catarrhalis [5] = test: microbe, parasite or virus in culture; assay type: cell-based
[6] = tested on: intracellular P. gingivalis in KB cells; assay type: cell-based
MSSA [7] = test: microbe, parasite or virus in culture; details: Staphylococcus aureus
S. pneumoniae (Sp) = test: microbe, parasite or virus in culture; assay type: cell-based; details: Streptococcus pneumoniae
S. aureus MRSA = test: microbe, parasite or virus in culture; assay type: cell-based; details: Staphylococcus aureus
MSSA [8] = tested on: MSSA
H. influenzae [9] = test: microbe, parasite or virus in culture; assay type: cell-based; details: Haemophilus influenzae; remark: listed apart in the source
S. pneumoniae [10] = tested on: S. pneumoniae
S. aureus MSSA = test: microbe, parasite or virus in culture; assay type: cell-based; details: Staphylococcus aureus
K. pneumoniae = test: microbe, parasite or virus in culture; assay type: cell-based; details: Klebsiella pneumoniae
MRSA = test: microbe, parasite or virus in culture; details: Staphylococcus aureus
Porphyromonas gingivalis = test: microbe, parasite or virus in culture; assay type: cell-based, P. gingivalis; details: read-out: MIC of mutants
S. pneumoniae [11] = test: microbe, parasite or virus in culture; assay type: cell-based; details: Streptococcus pneumoniae
[12] = 90% CI 86 to 97%
Streptococcus pneumoniae = test: microbe, parasite or virus in culture; assay type: cell-based, S. pneumoniae
H. influenzae (Hi) [13] = tested on: H. influenzae (Hi)
S pneumoniae (SPN) = test: microbe, parasite or virus in culture; assay type: cell-based
S. aureus (SA) [14] = test: microbe, parasite or virus in culture; assay type: cell-based; details: Staphylococcus aureus
S. pneumoniae (SPN) [15] = tested on: S. pneumoniae (SPN)
[16] = tested on: all resistant organism subsets; assay type: cell-based
Klebsiella spp. (KSP) = test: microbe, parasite or virus in culture
S. aureus (SA) [17] = test: microbe, parasite or virus in culture; details: Staphylococcus aureus
S. pneumoniae (SPN) [18] = test: microbe, parasite or virus in culture; details: Streptococcus pneumoniae
P. aeruginosa (PSA) = test: microbe, parasite or virus in culture; details: Pseudomonas aeruginosa
Serratia spp. (SER) = test: microbe, parasite or virus in culture
Acinetobacter spp. (AC) = test: microbe, parasite or virus in culture
[19] = tested on: Coag neg staphylococci (CoNS); test: organism not typed; assay type: cell-based
M. catarrhalis (MCAT) = test: microbe, parasite or virus in culture; details: Moraxella catarrhalis
[20] = tested on: Viridans group streptococci (VGS); test: organism not typed; assay type: cell-based
E. coli (EC) = test: microbe, parasite or virus in culture; details: Escherichia coli
Enterobacter spp. (ENT) [21] = tested on: Enterobacter spp. (ENT)
Enterococcus spp. (ESP) = test: microbe, parasite or virus in culture; assay type: cell-based
[22] = tested on: S. aureus and/or streptococci; details: 30 of 35 pts
Enterobacteriaceae (ENT) = test: organism not typed; assay type: cell-based
Enterobacter spp. (ENT) [23] = test: microbe, parasite or virus in culture
[24] = tested on: S. aureus and/or streptococcal baseline pathogens; test: microbe, parasite or virus in culture; details: Staphylococcus aureus, read-out: MIC values
Klebsiella spp. ESBL = test: microbe, parasite or virus in culture; assay type: cell-based
H. influenzae (Hi) [25] = test: microbe, parasite or virus in culture; details: Haemophilus influenzae
E. coli ESBL = test: microbe, parasite or virus in culture; assay type: cell-based
beta-streptococci (BST) = test: organism not typed

Compound: C[C@@H](O)[C@H]1C(=O)N2C(C(=O)O)=C(S[C@@H]3CN[C@H](C(=O)Nc4cccc(C(=O)O)c4)C3)[C@H](C)[C@H]12 [ETP]
- Adjusted LOS [1]: 11.9

Compound: COc1c(N2CCNC(C)C2)c(F)cc2c(=O)c(C(=O)O)cn(C3CC3)c12 (centres unmarked) [GFX, gatifloxacin]
- MIC50 (M. catarrhalis [2]): ≤ 0.03 µg/mL
- MIC50 (H. influenzae [3]): ≤ 0.03 µg/mL

Compound: C=CC[C@@H]1/C=C(\C)C[C@H](C)C[C@H](OC)[C@H]2O[C@@](O)(C(=O)C(=O)N3CCCC[C@H]3C(=O)O[C@H](/C(C)=C/[C@@H]3CC[C@@H](O)[C@H](OC)C3)[C@H](C)[C@@H](O)CC1=O)[C@H](C)C[C@@H]2OC [Tacrolimus, tacrolimus]
- concomitant drug bioavailability (AUC %) with POS vs alone [4]: 458%

Compound: COc1c(N2C[C@@H]3CCCN[C@@H]3C2)c(F)cc2c(=O)c(C(=O)O)cn(C3CC3)c12 [moxifloxacin]
- susceptible (%) (M. catarrhalis [5]): 100%
- MIC90 (M. catarrhalis [5]; Moraxella catarrhalis): 0.125 µg/mL (≈ 0.311 µM)
- concentration killing all intracellular P. gingivalis [6]: 100 fold MIC
- MIC50 (MSSA [7]): 0.25 µg/mL (≈ 0.623 µM)
- MIC90 (S. pneumoniae (Sp)): 0.25 µg/mL (≈ 0.623 µM)
- MIC90 (S. aureus MRSA): 8 µg/mL (≈ 19.9 µM)
- more active than ciprofloxacin (MSSA [8]): 4 fold
- MIC90 (H. influenzae [9]): 0.125 µg/mL (≈ 0.311 µM)
- %I (S. pneumoniae [10]; 2002 (n = 103)): 3%
- %R (S. pneumoniae [10]; 2002 (n = 103)): 1%
- %S (S. pneumoniae [10]; 2002 (n = 103)): 96%
- %I (S. pneumoniae [10]; 2003 (n = 137)): 0%
- %R (S. pneumoniae [10]; 2003 (n = 137)): 1.5%
- %S (S. pneumoniae [10]; 2003 (n = 137)): 98.5%
- %I (S. pneumoniae [10]; 2004 (n = 110)): 0%
- %R (S. pneumoniae [10]; 2004 (n = 110)): 0%
- %S (S. pneumoniae [10]; 2004 (n = 110)): 100%
- MIC90 (S. aureus MSSA): 1 µg/mL (≈ 2.49 µM)
- MIC90 (K. pneumoniae): 0.75 µg/mL (≈ 1.87 µM)
- MIC90 (MRSA): ≥ 16 µg/mL
- MIC (Porphyromonas gingivalis): > 32 µg/mL
- MIC90 (S. pneumoniae [11]): 0.19 µg/mL (≈ 0.473 µM)
- AUC point estimate B/A [12]: 91%
- AUC point estimate C/A [12]: 91%

Compound: CC[C@H]1OC(=O)[C@H](C)C(=O)[C@H](C)[C@@H](O[C@@H]2O[C@H](C)C[C@H](N(C)C)[C@H]2O)[C@](C)(OC)C[C@@H](C)C(=O)[C@H](C)[C@H]2N(CCCCn3cnc(-c4cccnc4)c3)C(=O)O[C@]12C [telithromycin]
- MIC (Streptococcus pneumoniae): 4 µg/mL (≈ 4.93 µM)

Compound: CN(C)c1cc(NC(=O)CNC(C)(C)C)c(O)c2c1C[C@H]1C[C@H]3[C@H](N(C)C)C(O)=C(C(N)=O)C(=O)[C@@]3(O)C(O)=C1C2=O [tigecycline]
- MIC90 (H. influenzae (Hi) [13]; NP): 1 µg/mL (≈ 1.71 µM)
- MIC50 (H. influenzae (Hi) [13]; NP (16)): 0.5 µg/mL (≈ 0.854 µM)
- % inhibited at ≤ 2 mg/L (S pneumoniae (SPN); CIP-R (171)): 100%
- MIC 50% (S pneumoniae (SPN); CIP-R (171)): ≤ 0.12 µg/mL
- MIC50 (S pneumoniae (SPN); Streptococcus pneumoniae): ≤ 0.12 µg/mL
- MIC90 (S pneumoniae (SPN); Streptococcus pneumoniae, CIP-R (171)): ≤ 0.12 µg/mL
- MIC90 (S pneumoniae (SPN); Streptococcus pneumoniae, TET R (733)): ≤ 0.12 µg/mL
- MIC90 (S pneumoniae (SPN); Streptococcus pneumoniae, […]): 0.12 µg/mL (≈ 0.205 µM)
- % inhibited at ≤ 2 mg/L (S pneumoniae (SPN); TET R (733)): >99%
- % inhibited at ≤ 4 mg/L (S pneumoniae (SPN); TET R (733)): >99%
- MIC 50% (S pneumoniae (SPN); TET R (733)): ≤ 0.12 µg/mL
- % inhibited at ≤ 2 mg/L (S pneumoniae (SPN); […]): 100%
- MIC50 (S. aureus (SA) [14]): 0.25 µg/mL (≈ 0.427 µM)
- MIC90 (S. aureus (SA) [14]): 0.5 µg/mL (≈ 0.854 µM)
- MIC90 (S. pneumoniae (SPN) [15]; NP): ≤0.12/≤0.12 mg/L
- MIC50 (S. pneumoniae (SPN) [15]; NP (117)): ≤0.12/≤0.12 mg/L
- Total % Inhibited at ≤ 2 mg/L [16]: 97%
- Total % Inhibited at ≤ 4 mg/L [16]: >99%
- MIC50 (Klebsiella spp. (KSP)): 0.5 µg/mL (≈ 0.854 µM)
- MIC90 (Klebsiella spp. (KSP)): 1 µg/mL (≈ 1.71 µM)
- MIC (Klebsiella spp. (KSP); read-out: MICs): ≤ 2 µg/mL
- MIC50 (S. aureus (SA) [17]): 0.25 µg/mL (≈ 0.427 µM)
- MIC90 (S. aureus (SA) [17]): 0.5 µg/mL (≈ 0.854 µM)
- MIC50 (S. pneumoniae (SPN) [18]): ≤ 0.12 µg/mL
- MIC90 (S. pneumoniae (SPN) [18]): ≤ 0.12 µg/mL
- MIC90 (P. aeruginosa (PSA)): 16 µg/mL (≈ 27.3 µM)
- MIC50 (Serratia spp. (SER)): 1 µg/mL (≈ 1.71 µM)
- MIC90 (Serratia spp. (SER)): 4 µg/mL (≈ 6.83 µM)
- MIC50 (Acinetobacter spp. (AC)): 1 µg/mL (≈ 1.71 µM)
- MIC90 (Acinetobacter spp. (AC)): 4 µg/mL (≈ 6.83 µM)
- MIC50 [19]: ≤ 0.12 µg/mL
- MIC90 [19]: 0.5 µg/mL (≈ 0.854 µM)
- MIC90 (M. catarrhalis (MCAT)): 0.25 µg/mL (≈ 0.427 µM)
- MIC50 (M. catarrhalis (MCAT); CARTI (600)): ≤ 0.12 µg/mL
- MIC50 (M. catarrhalis (MCAT); NP (7)): 0.25 µg/mL (≈ 0.427 µM)
- MIC50 [20]: ≤ 0.12 µg/mL
- MIC90 [20]: 0.12 µg/mL (≈ 0.205 µM)
- MIC50 (E. coli (EC)): 0.25 µg/mL (≈ 0.427 µM)
- MIC90 (E. coli (EC)): 0.5 µg/mL (≈ 0.854 µM)
- MIC (E. coli (EC); read-out: MICs): ≤ 2 µg/mL
- % ≤2 mg/L (Enterobacter spp. (ENT) [21]): 98%
- % ≤4 mg/L (Enterobacter spp. (ENT) [21]): 100%
- MIC50 (Enterococcus spp. (ESP); Enterococcus): ≤ 0.12 µg/mL
- MIC90 (Enterococcus spp. (ESP); Enterococcus): 0.25 µg/mL (≈ 0.427 µM)
- MIC 50% (Enterococcus spp. (ESP); Van B (95)): ≤ 0.12 µg/mL
- MIC 90% (Enterococcus spp. (ESP); Van B (95)): 0.25 µg/mL (≈ 0.427 µM)
- clinical cure [22]: 85.7%
- % inhibited at ≤ 4 mg/L (Enterobacteriaceae (ENT)): 98%
- MIC50 (Enterobacteriaceae (ENT)): 0.5 µg/mL (≈ 0.854 µM)
- MIC 50% (Enterobacteriaceae (ENT)): 0.25 µg/mL (≈ 0.427 µM)
- MIC90 (Enterobacteriaceae (ENT)): 4 µg/mL (≈ 6.83 µM)
- MIC 90% (Enterobacteriaceae (ENT)): 2 µg/mL (≈ 3.41 µM)
- MIC50 (Enterobacter spp. (ENT) [23]): 0.5 µg/mL (≈ 0.854 µM)
- MIC90 (Enterobacter spp. (ENT) [23]): 2 µg/mL (≈ 3.41 µM)
- MIC [24]: 0.06 to 0.5 µg/mL (≈ 0.102 to 0.854 µM)
- % inhibited at ≤ 4 mg/L (Klebsiella spp. ESBL; (317)): 100%
- MIC50 (Klebsiella spp. ESBL; Klebsiella): 0.5 µg/mL (≈ 0.854 µM)
- MIC90 (Klebsiella spp. ESBL; Klebsiella): 2 µg/mL (≈ 3.41 µM)
- MIC50 (H. influenzae (Hi) [25]): 0.5 µg/mL (≈ 0.854 µM)
- MIC90 (H. influenzae (Hi) [25]): 1 µg/mL (≈ 1.71 µM)
- % inhibited at ≤ 2 mg/L (E. coli ESBL; (279)): >99%
- % inhibited at ≤ 4 mg/L (E. coli ESBL; (279)): 100%
- MIC50 (E. coli ESBL; Escherichia coli): 0.25 µg/mL (≈ 0.427 µM)
- MIC90 (E. coli ESBL; Escherichia coli): 0.5 µg/mL (≈ 0.854 µM)
- MIC50 (beta-streptococci (BST)): ≤ 0.12 µg/mL
- MIC90 (beta-streptococci (BST)): ≤ 0.12 µg/mL
